Test results: patent US20150031674A1, “SERINE/THREONINE KINASE INHIBITORS” (GENENTECH, INC., priority 2013, published 2015)
pIC50, pKi: −log10 of the molar value.

Legend:
[1] = test system: group I PAKs in EBC1 cells (MEK1 phosphorylation at S298); experiment: Cellular PAK IC50 Assay: MEK1 phosphorylation at S298 by HTRF; type: cell-based; settings: Homo sapiens, EBC-1, 2 h treatment, media containing 0.1% FBS, phospho-MEK1 (S298) HTRF
Experimental: Cellular PAK IC50 Assay Protocol
Group I PAKs (PAK1-3) are activated upon binding to the Rho GTPases, Rac1 and Cdc42. Activated group I PAKs phosphorylate MEK1 at Serine 298 (S298), one of the two sites in the catalytic domain that is important for stable association between Raf and MEK1 and subsequent MAPK activation. The inhibition of group I PAKs in EBC1 cells is assessed by detecting changes in the level of MEK1 phosphorylation at S298 using homogenous time-resolved fluorescence (HTRF). Inhibitory activity was estimated by treating 2×10^4 EBC1 cells for 2 h with PAK inhibitors in media containing 0.1% FBS. Following inhibitor treatment, cells were lysed with 25 μL of 1× cellular kinase lysis buffer (Cisbio) containing 1× cellular kinase blocking reagent (Cisbio). Cellular lysis was carried out at 4° C. for 2 h with constant shaking before lysate (16 μL) was transferred to white 384-well ProxiPlates™ (Perkin Elmer). Anti-total MEK1 antibody labeled with Europium cryptate donor (1 ng/well) (Cell Signaling Technologies catalog number 2352) and anti-phospho MEK1 (S298) antibody labeled with d2 acceptor (Cell Signaling Technologies catalog number 9128) (10 ng/well) were prepared in 1× detection buffer (CisBio) and added to each well of the assay plate and allowed to incubate at RT overnight. The following day the fluorescence emission from each well was measured in EnVision® (Perkin Elmer) at an excitation of 330 nm and dual emission wavelengths of 615 nm and 665 nm. The signal in each well at 665 nm was multiplied by 10,000 and divided by the signal in the same well at 615 nm to obtain a ratio. Ratio values ([665·10,000]÷615) were plotted as a function of the concentration of compound to determine IC50 values.

[2] = molecular target: human recombinant PAK1-KD protein (Homo sapiens, UniProt Q13153); experiment: PAK1-KD (Kinase Domain) IC50 Zlyte Assay (FRET peptide substrate phosphorylation); settings: Z'-LYTE, Biological Example 1
Chain of human recombinant PAK1-KD protein (Q13153 270-521 limits assumed): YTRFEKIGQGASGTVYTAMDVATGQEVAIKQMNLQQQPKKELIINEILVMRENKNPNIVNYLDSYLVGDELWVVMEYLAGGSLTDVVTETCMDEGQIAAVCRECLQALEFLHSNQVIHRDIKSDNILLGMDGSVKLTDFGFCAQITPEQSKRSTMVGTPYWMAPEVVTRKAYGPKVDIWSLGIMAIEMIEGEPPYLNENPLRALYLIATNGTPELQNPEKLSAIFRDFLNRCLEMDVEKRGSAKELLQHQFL

Row | pIC50 [1] | pKi [2] | Structure (SMILES)
1 | 6.56 | 7.67 | CCNc1ncc2cc(-c3ccc(-c4cncc(C)n4)cc3Cl)c(=O)n(C[C@H]3CC[C@H](N(C)C)CC3)c2n1 [Example I-10, 6-(2-Chloro-4-(6-methylpyrazin-2-yl)phenyl)-8-(((1r,4r)-4-(dimethylamino)cyclohexyl)methyl)-2-(ethylamino)pyrido[2,3-d]pyrimidin-7(8H)-one]
2 | 6.72 | 8.16 | CCNc1ncc2cc(-c3ccc(-c4cncc(C)n4)cc3Cl)c(=O)n(CCOC3CNC3)c2n1 [Example I-11, 8-(2-(Azetidin-3-yloxy)ethyl)-6-(2-chloro-4-(6-methylpyrazin-2-yl)phenyl)-2-(ethylamino)pyrido[2,3-d]pyrimidin-7(8H)-one]
3 | 7.02 | 8.19 | CCNc1ncc2cc(-c3ccc(-c4cncc(C)n4)cc3Cl)c(=O)n(CCN3CCNCC3)c2n1 [Example I-4, 6-(2-Chloro-4-(6-methylpyrazin-2-yl)phenyl)-2-(ethylamino)-8-(2-(piperazin-1-yl)ethyl)pyrido[2,3-d]pyrimidin-7(8H)-one]
4 | 6.61 | 7.83 | CCNc1ncc2cc(-c3ccc(-c4cncc(C)n4)cc3Cl)c(=O)n(CCOC3CCCNC3)c2n1 (stereo not shown) [Example I-14, 6-(2-Chloro-4-(6-methylpyrazin-2-yl)phenyl)-2-(ethylamino)-8-(2-(piperidin-3-yloxy)ethyl)pyrido[2,3-d]pyrimidin-7(8H)-one]
5 | 6.97 | 8.15 | CCNc1ncc2cc(-c3ccc(-c4cncc(C)n4)cc3Cl)c(=O)n(CC(C)OC3CNC3)c2n1 (single isomer, unassigned) [Example I-91, 8-[2-(Azetidin-3-yloxy)propyl]-6-[2-chloro-4-(6-methylpyrazin-2-yl)phenyl]-2-(ethylamino)pyrido[2,3-d]pyrimidin-7-one]
6 | 6.45 | 7.85 | Cc1cncc(-c2ccc(-c3cc4cnc(N)nc4n(C[C@H]4CC[C@H](N)CC4)c3=O)c(Cl)c2)n1 [Example I-9, 2-Amino-8-(((1r,4r)-4-aminocyclohexyl)methyl)-6-(2-chloro-4-(6-methylpyrazin-2-yl)phenyl)pyrido[2,3-d]pyrimidin-7(8H)-one]
7 | 6.60 | 8.08 | CCNc1ncc2cc(-c3ccc(-c4cncc(C)n4)cc3Cl)c(=O)n(CCCN)c2n1 [Example I-1, 8-(3-Aminopropyl)-6-[2-chloro-4-(6-methylpyrazin-2-yl)phenyl]-2-(ethylamino)pyrido[2,3-d]pyrimidin-7-one]
8 | 6.88 | 8.37 | CCNc1ncc2cc(-c3ccc(-c4cncc(C)n4)cc3Cl)c(=O)n(CCOCCN)c2n1 [Example I-12, 8-(2-(2-Aminoethoxy)ethyl)-6-(2-chloro-4-(6-methylpyrazin-2-yl)phenyl)-2-(ethylamino)pyrido[2,3-d]pyrimidin-7(8H)-one]
9 | 7.12 | 8.14 | CCNc1ncc2cc(-c3ccc(-c4ncccc4C)cc3Cl)c(=O)n(C[C@H]3CC[C@H](N)CC3)c2n1 [Example I-16, 8-(((1r,4r)-4-Aminocyclohexyl)methyl)-6-(2-chloro-4-(3-methylpyridin-2-yl)phenyl)-2-(ethylamino)pyrido[2,3-d]pyrimidin-7(8H)-one]
10 | 6.37 | 7.73 | Cc1cncc(-c2ccc(-c3cc4cnc(N)nc4n(CC4OCC(N)CO4)c3=O)c(Cl)c2)n1 (stereo not shown) [Example I-56, 2-Amino-8-[((2s,5s)-5-amino-1,3-dioxan-2-yl)methyl]-6-[2-chloro-4-(6-methylpyrazin-2-yl)phenyl]pyrido[2,3-d]pyrimidin-7-one and 2-amino-8-[((2r,5r)-5-amino-1,3-dioxan-2-yl)methyl]-6-[2-chloro-4-(6-methylpyrazin-2-yl)phenyl]pyrido[2,3-d]pyrimidin-7-one]
11 | 7.08 | 8.60 | Cc1cccc(-c2ccc(-c3cc4cnc(NC5COC5)nc4n(CCOCCN)c3=O)c(C)c2)n1 [Example I-108, 8-[2-(2-aminoethoxy)ethyl]-6-[2-methyl-4-(6-methyl-2-pyridyl)phenyl]-2-(oxetan-3-ylamino)pyrido[2,3-d]pyrimidin-7-one]
12 | 7.14 | 8.34 | CCNc1ncc2cc(-c3ccc(-c4cccc(C)n4)cc3Cl)c(=O)n(CC3CCNCC3)c2n1 [Example I-44, 6-(2-Chloro-4-(6-methylpyridin-2-yl)phenyl)-2-(ethylamino)-8-(piperidin-4-ylmethyl)pyrido[2,3-d]pyrimidin-7(8H)-one]
13 | 6.74 | 8.24 | CCNc1ncc2cc(-c3ccc(-c4cncc(C)n4)cc3Cl)c(=O)n(CCOC3CCNC3)c2n1 (stereo not shown) [Example I-13, 6-(2-Chloro-4-(6-methylpyrazin-2-yl)phenyl)-2-(ethylamino)-8-(2-(pyrrolidin-3-yloxy)ethyl)pyrido[2,3-d]pyrimidin-7(8H)-one]
14 | 5.82 | 7.51 | CCNc1ncc2cc(-c3ccc(-c4cncc(C)n4)cc3Cl)c(=O)n(CC(=O)N3CCNCC3)c2n1 [Example I-8, 6-(2-Chloro-4-(6-methylpyrazin-2-yl)phenyl)-2-(ethylamino)-8-(2-oxo-2-(piperazin-1-yl)ethyl)pyrido[2,3-d]pyrimidin-7(8H)-one]
15 | 6.54 | 7.57 | CCNc1ncc2cc(-c3ccc(-c4cncc(C)n4)cc3Cl)c(=O)n(CCC3CCCN3)c2n1 (single isomer, unassigned) [Example I-19]
16 | 7.02 | 8.32 | CCNc1ncc2cc(-c3ccc(-c4cncc(C)n4)cc3Cl)c(=O)n(C[C@H]3CC[C@H](NC)CC3)c2n1 [Example I-17, 6-(2-Chloro-4-(6-methylpyrazin-2-yl)phenyl)-2-(ethylamino)-8-(((1r,4r)-4-(methylamino)cyclohexyl)methyl)pyrido[2,3-d]pyrimidin-7(8H)-one]
17 | 6.29 | 7.86 | CNc1ncc2cc(-c3ccc(-c4cncc(C)n4)cc3Cl)c(=O)n(CCCN)c2n1 [Example I-18, 8-(3-Aminopropyl)-6-[2-chloro-4-(6-methylpyrazin-2-yl)phenyl]-2-(methylamino)pyrido[2,3-d]pyrimidin-7-one]
18 | 6.71 | 7.69 | CCNc1ncc2cc(-c3ccc(-c4cncc(C)n4)cc3Cl)c(=O)n(C3COC4(CCNC4)C3)c2n1 (stereo not shown) [Example I-75, 6-[2-Chloro-4-(6-methylpyrazin-2-yl)phenyl]-2-(ethylamino)-8-(1-oxa-7-azaspiro[4.4]nonan-3-yl)pyrido[2,3-d]pyrimidin-7-one]
19 | 6.90 | 8.34 | CCNc1ncc2cc(-c3ccc(-c4cccc(C)n4)cc3C)c(=O)n(CCOC3CNC3)c2n1 [Example I-31, 8-(2-(azetidin-3-yloxy)ethyl)-2-(ethylamino)-6-(2-methyl-4-(6-methylpyridin-2-yl)phenyl)pyrido[2,3-d]pyrimidin-7(8H)-one]
20 | 6.54 | 7.76 | CCNc1ncc2cc(-c3ccc(-c4cccc(C)n4)cc3C)c(=O)n(CCCC(N)=O)c2n1 [Example I-70, 4-[2-(Ethylamino)-6-[2-methyl-4-(6-methyl-2-pyridyl)phenyl]-7-oxo-pyrido[2,3-d]pyrimidin-8-yl]butanamide]
21 | 6.30 | 7.32 | CCNc1ncc2cc(-c3ccc(-c4cncc(C)n4)cc3Cl)c(=O)n(CCCC(N)=O)c2n1 [Example I-3, 4-[6-[2-Chloro-4-(6-methylpyrazin-2-yl)phenyl]-2-(ethylamino)-7-oxo-pyrido[2,3-d]pyrimidin-8-yl]butanamide]
22 | 6.81 | 8.25 | CCNc1ncc2cc(-c3ccc(-c4cncc(C)n4)cc3Cl)c(=O)n(CCOC3CCNC3)c2n1 (single isomer, unassigned) [Example I-52]
23 | 7.45 | 8.55 | CCNc1ncc2cc(-c3ccc(-c4cccc(C)n4)cc3Cl)c(=O)n(CCOCCN)c2n1 [Example I-64, 8-[2-(2-Aminoethoxy)ethyl]-6-[2-chloro-4-(6-methyl-2-pyridyl)phenyl]-2-(ethylamino)pyrido[2,3-d]pyrimidin-7-one]
